Source: ChEMBL document CHEMBL5214910, “Rational Design of Dipicolylamine-Containing Carbazole Amphiphiles Combined with Zn2+ as Potent Broad-Spectrum Antibacterial Agents with a Membrane-Disruptive Mechanism” (J Med Chem, 2021)
≈ marks a conversion by molar mass, not a printed value.

Tests used:
Staphylococcus aureus [1] = assay: Antibacterial activity against Methicillin-resistant Staphylococcus aureus N315 assessed as inhibition of bacterial growth incubated for 24 hrs in the presence of 12.5 ug/mL Zn2+ by Muller hinton broth based dilution assay; assay type: functional
[2] = Hemolytic activity in rabbit RBC incubated for 1 hrs in the presence of 12.5 ug/mL Zn2+ by fluorescence based microplate reader assay; assay type: toxicity, cell-based, Oryctolagus cuniculus, Erythrocyte; conditions: rabbit red blood cells (erythrocytes)
Acinetobacter baumannii [3] = assay: Antibacterial activity against Acinetobacter baumannii ATCC 17978 assessed as inhIbition of bacterial growth incubated for 24 hrs by Muller hinton broth based dilution assay; assay type: functional
Staphylococcus aureus [4] = assay: Antibacterial activity against Methicillin-resistant Staphylococcus aureus NCTC10442 assessed as inhibition of bacterial growth incubated for 24 hrs by Muller hinton broth based dilution assay; assay type: functional
Escherichia coli [5] = assay: Antibacterial activity Escherichia coli ATCC 25922 assessed as inhibition of bacterial growth incubated for 24 hrs in the presence of 12.5 ug/mL Zn2+ by Muller hinton broth based dilution assay; assay type: functional
Acinetobacter baumannii [6] = assay: Antibacterial activity against Acinetobacter baumannii R2889 assessed as inhIbition of bacterial growth incubated for 24 hrs in the presence of 12.5 ug/mL Zn2+ by Muller hinton broth based dilution assay; assay type: functional
Acinetobacter baumannii [7] = assay: Antibacterial activity against Acinetobacter baumannii R2889 assessed as inhIbition of bacterial growth incubated for 24 hrs by Muller hinton broth based dilution assay; assay type: functional
Acinetobacter baumannii [8] = assay: Antibacterial activity against Acinetobacter baumannii ATCC 17978 assessed as inhIbition of bacterial growth incubated for 24 hrs in the presence of 12.5 ug/mL Zn2+ by Muller hinton broth based dilution assay; assay type: functional
Pseudomonas aeruginosa [9] = assay: Antibacterial activity Pseudomonas aeruginosa ATCC 9027 assessed as inhibition of bacterial growth incubated for 24 hrs by Muller hinton broth based dilution assay; assay type: functional
Escherichia coli [10] = assay: Antibacterial activity Escherichia coli ATCC 25922 assessed as inhibition of bacterial growth incubated for 24 hrs by Muller hinton broth based dilution assay; assay type: functional
[11] = Hemolytic activity in rabbit RBC incubated for 1 hrs by fluorescence based microplate reader assay; assay type: toxicity, cell-based, Oryctolagus cuniculus, Erythrocyte; conditions: rabbit red blood cells (erythrocytes)
Staphylococcus aureus [12] = assay: Antibacterial activity against Staphylococcus aureus ATCC 29213 assessed as inhibition of bacterial growth incubated for 24 hrs in the presence of 12.5 ug/mL Zn2+ by Muller hinton broth based dilution assay; assay type: functional
Staphylococcus aureus [13] = assay: Antibacterial activity against Methicillin-resistant Staphylococcus aureus N315 assessed as inhibition of bacterial growth incubated for 24 hrs by Muller hinton broth based dilution assay; assay type: functional
Pseudomonas aeruginosa [14] = assay: Antibacterial activity Pseudomonas aeruginosa ATCC 9027 assessed as inhibition of bacterial growth incubated for 24 hrs in the presence of 12.5 ug/mL Zn2+ by Muller hinton broth based dilution assay; assay type: functional
Staphylococcus aureus [15] = assay: Antibacterial activity against Staphylococcus aureus ATCC 29213 assessed as inhibition of bacterial growth incubated for 24 hrs by Muller hinton broth based dilution assay; assay type: functional
Staphylococcus aureus [16] = assay: Antibacterial activity against Methicillin-resistant Staphylococcus aureus NCTC10442 assessed as inhibition of bacterial growth incubated for 24 hrs in the presence of 12.5 ug/mL Zn2+ by Muller hinton broth based dilution assay; assay type: functional
Escherichia coli [17] = assay: Induction of drug resistance in Escherichia coli ATCC 25922 assessed as fold change in MIC incubated for 15 days; assay type: functional; conditions: time 15.0 day
Pseudomonas aeruginosa [18] = assay: Antibacterial activity against Pseudomonas aeruginosa ATCC 9027 in C57BL/6 mouse model of bacterial keratitis assessed as log reduction in viable bacterial count in infected cornea at 0.3 % pre-infected with bacteria for 24 hrs followed by topical administration of compound four times a day for 3 days; assay type: functional; conditions: route top, time 3 day
Staphylococcus aureus [19] = assay: Induction of drug resistance in Staphylococcus aureus ATCC 29213 assessed as fold change in MIC incubated for 17 days; assay type: functional; conditions: time 17.0 day

OC(COc1cccc2c1c1ccccc1n2CCCC(F)(F)F)CN(Cc1ccccn1)Cc1ccccn1 (stereo not drawn)
MIC (Staphylococcus aureus [1]): 1.56 µg/mL
HC50 at 1 h [2]: > 200 µg/mL
MIC (Acinetobacter baumannii [3]): 6.25 µg/mL (≈ 11.4 µM)
MIC (Staphylococcus aureus [4]): 1.56 µg/mL (≈ 2.84 µM)
MIC (Escherichia coli [5]): 3.12 µg/mL
MIC (Acinetobacter baumannii [6]): 3.12 µg/mL
MIC (Acinetobacter baumannii [7]): 6.25 µg/mL (≈ 11.4 µM)
MIC (Acinetobacter baumannii [8]): 3.12 µg/mL
MIC (Pseudomonas aeruginosa [9]): > 50 µg/mL
MIC (Escherichia coli [10]): 12.5 µg/mL (≈ 22.8 µM)
HC50 at 1 h [11]: > 200 µg/mL
MIC (Staphylococcus aureus [12]): 1.56 µg/mL
MIC (Staphylococcus aureus [13]): 3.12 µg/mL (≈ 5.7 µM)
MIC (Pseudomonas aeruginosa [14]): 12.5 µg/mL
MIC (Staphylococcus aureus [15]): 3.12 µg/mL (≈ 5.7 µM)
MIC (Staphylococcus aureus [16]): 0.78 µg/mL

CCCn1c2ccccc2c2c(OCC3CO3)cccc21 (stereo not drawn)
MIC (Acinetobacter baumannii [3]): > 50 µg/mL
MIC (Staphylococcus aureus [4]): > 50 µg/mL
MIC (Acinetobacter baumannii [7]): > 50 µg/mL
MIC (Pseudomonas aeruginosa [9]): > 50 µg/mL
MIC (Escherichia coli [10]): > 50 µg/mL
HC50 at 1 h [11]: > 200 µg/mL
MIC (Staphylococcus aureus [13]): > 50 µg/mL
MIC (Staphylococcus aureus [15]): > 50 µg/mL

CC1(C)S[C@@H]2[C@H](NC(=O)[C@H](N)c3ccc(O)cc3)C(=O)N2[C@H]1C(=O)O
fold change (FC) (Escherichia coli [17]): 16

CC(C)=CCn1c2ccccc2c2c(OCC(O)CNCc3ccccn3)cccc21 (stereo not drawn)
MIC (Staphylococcus aureus [1]): 3.12 µg/mL
HC50 at 1 h [2]: > 200 µg/mL
MIC (Acinetobacter baumannii [3]): > 50 µg/mL
MIC (Staphylococcus aureus [4]): 6.25 µg/mL (≈ 15 µM)
MIC (Escherichia coli [5]): > 50 µg/mL
MIC (Acinetobacter baumannii [6]): > 50 µg/mL
MIC (Acinetobacter baumannii [7]): > 50 µg/mL
MIC (Acinetobacter baumannii [8]): > 50 µg/mL
MIC (Pseudomonas aeruginosa [9]): > 50 µg/mL
MIC (Escherichia coli [10]): 50 µg/mL (≈ 120 µM)
HC50 at 1 h [11]: > 200 µg/mL
MIC (Staphylococcus aureus [12]): 3.12 µg/mL
MIC (Staphylococcus aureus [13]): 6.25 µg/mL (≈ 15 µM)
MIC (Pseudomonas aeruginosa [14]): > 50 µg/mL
MIC (Staphylococcus aureus [15]): 6.25 µg/mL (≈ 15 µM)
MIC (Staphylococcus aureus [16]): 6.25 µg/mL

Cn1c2ccccc2c2c(OCC(O)CN(Cc3ccccn3)Cc3ccccn3)cccc21 (stereo not drawn)
MIC (Staphylococcus aureus [1]): 1.56 µg/mL
HC50 at 1 h [2]: > 200 µg/mL
MIC (Acinetobacter baumannii [3]): 12.5 µg/mL (≈ 27.6 µM)
MIC (Staphylococcus aureus [4]): 12.5 µg/mL (≈ 27.6 µM)
MIC (Escherichia coli [5]): 50 µg/mL
MIC (Acinetobacter baumannii [6]): 25 µg/mL
MIC (Acinetobacter baumannii [7]): 25 µg/mL (≈ 55.2 µM)
MIC (Acinetobacter baumannii [8]): 12.5 µg/mL
MIC (Pseudomonas aeruginosa [9]): > 50 µg/mL
MIC (Escherichia coli [10]): 50 µg/mL (≈ 110 µM)
HC50 at 1 h [11]: > 200 µg/mL
MIC (Staphylococcus aureus [12]): 3.12 µg/mL
MIC (Staphylococcus aureus [13]): 6.25 µg/mL (≈ 13.8 µM)
MIC (Pseudomonas aeruginosa [14]): 12.5 µg/mL
MIC (Staphylococcus aureus [15]): 12.5 µg/mL (≈ 27.6 µM)
MIC (Staphylococcus aureus [16]): 6.25 µg/mL

FC(F)(F)CCCn1c2ccccc2c2c(OCC3CO3)cccc21 (stereo not drawn)
MIC (Acinetobacter baumannii [3]): > 50 µg/mL
MIC (Staphylococcus aureus [4]): > 50 µg/mL
MIC (Acinetobacter baumannii [7]): > 50 µg/mL
MIC (Pseudomonas aeruginosa [9]): > 50 µg/mL
MIC (Escherichia coli [10]): > 50 µg/mL
MIC (Staphylococcus aureus [13]): > 50 µg/mL
MIC (Staphylococcus aureus [15]): > 50 µg/mL

CCCCCCCn1c2ccccc2c2c(OCC3CO3)cccc21 (stereo not drawn)
MIC (Acinetobacter baumannii [3]): > 50 µg/mL
MIC (Staphylococcus aureus [4]): > 50 µg/mL
MIC (Acinetobacter baumannii [7]): > 50 µg/mL
MIC (Pseudomonas aeruginosa [9]): > 50 µg/mL
MIC (Escherichia coli [10]): > 50 µg/mL
HC50 at 1 h [11]: > 200 µg/mL
MIC (Staphylococcus aureus [13]): > 50 µg/mL
MIC (Staphylococcus aureus [15]): > 50 µg/mL

COc1c(N2CCNC(C)C2)c(F)cc2c(=O)c(C(=O)O)cn(C3CC3)c12 (stereo not drawn) [GATIFLOXACIN]
log(activity) (Pseudomonas aeruginosa [18]): 3.03

Cn1c2ccccc2c2c(OCC3CO3)cccc21 (stereo not drawn)
MIC (Acinetobacter baumannii [3]): > 50 µg/mL
MIC (Staphylococcus aureus [4]): > 50 µg/mL
MIC (Acinetobacter baumannii [7]): > 50 µg/mL
MIC (Pseudomonas aeruginosa [9]): > 50 µg/mL
MIC (Escherichia coli [10]): > 50 µg/mL
HC50 at 1 h [11]: > 200 µg/mL
MIC (Staphylococcus aureus [13]): > 50 µg/mL
MIC (Staphylococcus aureus [15]): > 50 µg/mL

CCn1cc(C(=O)O)c(=O)c2cc(F)c(N3CCNCC3)cc21
fold change (FC) (Staphylococcus aureus [19]): 32

CCCCCCCn1c2ccccc2c2c(OCC(O)CN(Cc3ccccn3)Cc3ccccn3)cccc21 (stereo not drawn)
MIC (Staphylococcus aureus [1]): 0.78 µg/mL
HC50 at 1 h [2]: > 200 µg/mL
MIC (Acinetobacter baumannii [3]): > 50 µg/mL
MIC (Staphylococcus aureus [4]): 1.56 µg/mL (≈ 2.91 µM)
MIC (Escherichia coli [5]): 3.12 µg/mL
MIC (Acinetobacter baumannii [6]): 25 µg/mL
MIC (Acinetobacter baumannii [7]): 25 µg/mL (≈ 46.6 µM)
MIC (Acinetobacter baumannii [8]): > 50 µg/mL
MIC (Pseudomonas aeruginosa [9]): > 50 µg/mL
MIC (Escherichia coli [10]): > 50 µg/mL
HC50 at 1 h [11]: > 200 µg/mL
MIC (Staphylococcus aureus [12]): 1.56 µg/mL
MIC (Staphylococcus aureus [13]): 1.56 µg/mL (≈ 2.91 µM)
MIC (Pseudomonas aeruginosa [14]): > 50 µg/mL
MIC (Staphylococcus aureus [15]): 1.56 µg/mL (≈ 2.91 µM)
MIC (Staphylococcus aureus [16]): 1.56 µg/mL
